Values after ≈ are worked out from the molar mass of the structure shown. Read-outs that look alike come from different tables or passages of the source.
Columns and labels:
[1] = system: MDR-TB and XDR-TB strains; assay: microbe, parasite or virus in culture; assay type: cell-based; conditions: Mycobacterium tuberculosis
Mtb = conditions: cited from earlier work
Mtb H37Rv = assay: Minimum inhibitory concentration, broth microdilution, whole-cell activity; assay type: cell-based, Mycobacterium tuberculosis; conditions: for MIC GAST: Mtb H37Rv, GAST medium, MIC = >99% inhibition of cell growth; for MIC: Mycobacterium tuberculosis, H37RV
FACL19 = FACL19 (Mycobacterium tuberculosis, UniProt P9WQ51); assay: Coupled continuous enzyme kinetic assay; assay type: biochemical; conditions: for Ki^app FACL19: apparent Ki, Morrison equation, 250 μM dodecanoic acid
FACL19, sequence (P9WQ51 whole entry): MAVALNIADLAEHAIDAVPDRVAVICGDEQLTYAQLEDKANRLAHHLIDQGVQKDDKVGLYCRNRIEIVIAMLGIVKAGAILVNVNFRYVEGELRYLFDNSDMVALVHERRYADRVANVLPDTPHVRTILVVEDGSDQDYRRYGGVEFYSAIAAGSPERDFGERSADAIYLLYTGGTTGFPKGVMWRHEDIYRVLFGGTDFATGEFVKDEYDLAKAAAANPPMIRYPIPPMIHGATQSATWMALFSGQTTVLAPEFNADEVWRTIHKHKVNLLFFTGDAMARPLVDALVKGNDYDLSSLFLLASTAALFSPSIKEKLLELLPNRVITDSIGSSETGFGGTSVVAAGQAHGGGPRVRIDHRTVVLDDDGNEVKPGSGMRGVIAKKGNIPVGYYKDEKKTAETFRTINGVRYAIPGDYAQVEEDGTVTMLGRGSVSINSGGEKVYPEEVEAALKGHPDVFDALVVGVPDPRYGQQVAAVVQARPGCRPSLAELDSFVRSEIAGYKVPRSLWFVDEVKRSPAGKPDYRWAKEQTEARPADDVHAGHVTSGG

Vero cells = assay: Cytotoxicity, MTT assay; conditions: read-out: Cytotox IC50, Vero monkey cells, 72 h
FAAL28 = FAAL28 (Mycobacterium tuberculosis, UniProt P9WQ59); assay: Coupled continuous enzyme kinetic assay; assay type: biochemical; conditions: for Ki^app FAAL28: apparent Ki, Morrison equation, 33 μM tetradecanoic acid
FAAL28, sequence (P9WQ59 whole entry): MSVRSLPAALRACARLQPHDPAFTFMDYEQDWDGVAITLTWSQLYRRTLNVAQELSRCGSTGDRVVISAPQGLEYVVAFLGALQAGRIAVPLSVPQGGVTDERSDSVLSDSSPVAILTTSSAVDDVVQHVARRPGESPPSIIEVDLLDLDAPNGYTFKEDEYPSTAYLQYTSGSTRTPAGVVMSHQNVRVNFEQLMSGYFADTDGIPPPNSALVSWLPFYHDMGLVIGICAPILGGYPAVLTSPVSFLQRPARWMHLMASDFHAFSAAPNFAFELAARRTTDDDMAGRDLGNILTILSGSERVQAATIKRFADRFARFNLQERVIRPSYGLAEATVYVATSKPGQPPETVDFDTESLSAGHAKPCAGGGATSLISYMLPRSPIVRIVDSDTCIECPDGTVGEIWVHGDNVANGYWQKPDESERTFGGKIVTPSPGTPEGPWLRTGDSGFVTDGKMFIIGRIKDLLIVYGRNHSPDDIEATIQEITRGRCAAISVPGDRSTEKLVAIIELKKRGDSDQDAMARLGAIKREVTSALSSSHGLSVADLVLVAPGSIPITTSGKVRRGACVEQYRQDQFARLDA

[2] = read-out: MICs against MDR and XDR Mtb panel in 7H9 medium
[3] = read-out: MICs against MDR-TB and XDR-TB panel in both media
[4] = read-out: MIC 7H9, Mtb H37Rv, 7H9 medium
[5] = read-out: MIC 7H9/palmitate, Mtb H37Rv, 7H9/palmitate medium

CCCCCCCCCCCC(=O)NS(=O)(=O)OC[C@H]1O[C@@H](n2cnc3c(N)ncnc32)[C@H](O)[C@@H]1O [Compound 9, 5′-O-[N-(Dodecanoyl)sulfamoyl]adenosine]
MIC [1, 2]: 3.13 to 12.5 µM (≈ 1.65 to 6.61 µg/mL) | MIC against Mtb (Mtb): 100 µM (≈ 52.9 µg/mL) | MIC GAST (Mtb H37Rv): 0.19 to 0.39 µM

C[C@H](CCC(=O)NS(=O)(=O)OC[C@H]1O[C@@H](n2cnc3c(N)ncnc32)[C@H](O)[C@@H]1O)[C@H]1CC[C@H]2[C@@H]3CC[C@@H]4C[C@H](O)CC[C@]4(C)[C@H]3CC[C@]12C [Compound 11, reference compound]
MIC against Mtb (Mtb): 50 µM (≈ 35.2 µg/mL)

CCCCCCCCCCCCCC(=O)NS(=O)(=O)OC[C@H]1O[C@@H](n2cnc3c(N)ncnc32)[C@H](O)[C@@H]1O [Compound 17, 5′-O-[N-(Tetradecanoyl)sulfamoyl]adenosine]
MIC [1, 2]: 3.13 to 12.5 µM (≈ 1.74 to 6.96 µg/mL)

CCCCCCCCCCCCCCCC(=O)NS(=O)(=O)OC[C@H]1O[C@@H](n2cnc3c(N)ncnc32)[C@H](O)[C@@H]1O [Compound 18, 5′-O-[N-(Palmitoyl)sulfamoyl]adenosine]
Ki (FACL19): 3.2 µM

CCCCCCCCCCCCCCCCCCCC(=O)NS(=O)(=O)OC[C@H]1O[C@@H](n2cnc3c(N)ncnc32)[C@H](O)[C@@H]1O [Compound 20, 5′-O-[N-(Icosanoyl)sulfamoyl]adenosine]
IC50 (Vero cells): 0.1 µM

CCCCCCCCC/C=C/C(=O)NS(=O)(=O)OC[C@H]1O[C@@H](n2cnc3c(N)ncnc32)[C@H](O)[C@@H]1O [Compound 23, 5′-O-{N-[(E)-Dodec-2-enoyl]sulfamoyl}adenosine]
MIC [1, 3]: 3.13 to 12.5 µM (≈ 1.65 to 6.58 µg/mL)

CCCCC/C=C\CCCC(=O)NS(=O)(=O)OC[C@H]1O[C@@H](n2cnc3c(N)ncnc32)[C@H](O)[C@@H]1O [Compound 25, 5′-O-{N-[(Z)-Undec-5-enoyl]sulfamoyl}adenosine]
Ki (FACL19): > 100 µM | Ki (FAAL28): > 100 µM | MIC (Mtb H37Rv; [4]): 100 µM (≈ 51.3 µg/mL) | MIC (Mtb H37Rv; [5]): 100 µM (≈ 51.3 µg/mL)

CCCCCCCCC[C@@H]1C[C@@H]1C(=O)NS(=O)(=O)OC[C@H]1O[C@@H](n2cnc3c(N)ncnc32)[C@H](O)[C@@H]1O [Compound 26, 5′-O-{N-[(1S,2R)-2-Nonylcyclopropanecarbonyl]sulfamoyl} adenosine]
Ki^app FAAL28 (FAAL28): weak inhibition

[N-]=[N+]=NCCCCCCCCCCCC(=O)NS(=O)(=O)OC[C@H]1O[C@@H](n2cnc3c(N)ncnc32)[C@H](O)[C@@H]1O [Compound 28, 5′-O-[N-(12-Azidododecanoyl)sulfamoyl]adenosine]
MIC GAST (Mtb H37Rv): 0.098 to 3.13 µM | MIC (Mtb H37Rv; [4]): 12.5 to 25 µM (≈ 7.12 to 14.2 µg/mL)

NCCCCCCCCCCCC(=O)NS(=O)(=O)OC[C@H]1O[C@@H](n2cnc3c(N)ncnc32)[C@H](O)[C@@H]1O [Compound 29, 5′-O-[N-(12-Aminododecanoyl)sulfamoyl]adenosine]
MIC (Mtb H37Rv; [5]): 12.5 to 25 µM (≈ 6.8 to 13.6 µg/mL)

COC(=O)CCCCCCCCCCC(=O)NS(=O)(=O)OC[C@H]1O[C@@H](n2cnc3c(N)ncnc32)[C@H](O)[C@@H]1O [Compound 30, 5′-O-[N-(12-Methoxy-12-oxododecanoyl)sulfamoyl]adenosine]
Ki (FACL19): > 100 µM | Ki (FAAL28): > 100 µM | MIC GAST (Mtb H37Rv): 3.13 µM (≈ 1.79 µg/mL) | MIC (Mtb H37Rv; [4]): 100 µM (≈ 57.3 µg/mL) | MIC (Mtb H37Rv; [5]): > 100 µM

Nc1ncnc2c1ncn2[C@@H]1O[C@H](COS(=O)(=O)NC(=O)CCCCCCCCCCC(=O)O)[C@@H](O)[C@H]1O [Compound 31, 5′-O-[N-(11-Carboxyundecanoyl)sulfamoyl]adenosine]
Ki (FACL19): > 100 µM | Ki (FAAL28): > 100 µM | MIC (Mtb H37Rv; [4]): > 100 µM | MIC (Mtb H37Rv; [5]): > 100 µM

Nc1ncnc2c1ncn2[C@@H]1O[C@H](COS(=O)(=O)NC(=O)CCCCCCCCCCOc2ccccc2)[C@@H](O)[C@H]1O [Compound 32, 5′-O-[N-(11-Phenoxyundecanoyl)sulfamoyl]adenosine]
MIC [1, 3]: 3.13 to 12.5 µM (≈ 1.9 to 7.58 µg/mL) | Ki^app FACL19 (FACL19): completely inactive | selectivity for FAAL28 over FACL19 (FAAL28; ratio of apparent Ki values): greater than 142 fold

CCCCCCCCCC[C@@H](C)C(=O)NS(=O)(=O)OC[C@H]1O[C@@H](n2cnc3c(N)ncnc32)[C@H](O)[C@@H]1O [Compound 33, 5′-O-{N-[(R)-2-Methyldodecanoyl]sulfamoyl}adenosine]
Ki (FACL19): > 100 µM | Ki (FAAL28): > 100 µM | MIC (Mtb H37Rv; [4]): > 100 µM | MIC (Mtb H37Rv; [5]): > 100 µM

CCCCCCCCCC[C@H](C)C(=O)NS(=O)(=O)OC[C@H]1O[C@@H](n2cnc3c(N)ncnc32)[C@H](O)[C@@H]1O [Compound 34, 5′-O-{N-[(S)-2-Methylodecanoyl]sulfamoyl}adenosine]
Ki (FACL19): > 100 µM | Ki (FAAL28): > 100 µM | MIC (Mtb H37Rv; [4]): > 100 µM | MIC (Mtb H37Rv; [5]): > 100 µM

CCCCCCCCCCC(C)(C)C(=O)NS(=O)(=O)OC[C@H]1O[C@@H](n2cnc3c(N)ncnc32)[C@H](O)[C@@H]1O [Compound 35, 5′-O-[N-(2,2-Dimethyldodecanoyl)sulfamoyl]adenosine]
Ki (FACL19): 54.7 µM | Ki (FAAL28): > 100 µM | MIC (Mtb H37Rv; [4]): > 100 µM | MIC (Mtb H37Rv; [5]): > 100 µM

CCCCCCCCCOCC(=O)NS(=O)(=O)OC[C@H]1O[C@@H](n2cnc3c(N)ncnc32)[C@H](O)[C@@H]1O [Compound 36, 5′-O-[N-2-(Nonyloxy)acetylsulfamoyl]adenosine]
MIC GAST (Mtb H37Rv): 0.098 to 0.19 µM | MIC (Mtb H37Rv; [5]): 25 to 50 µM (≈ 13.3 to 26.5 µg/mL)

Nc1ncnc2c1ncn2[C@@H]1O[C@H](COS(=O)(=O)NC(=O)CCCCCCCCCOc2ccccc2)[C@@H](O)[C@H]1O [Compound 38, 5′-O-[N-(10-Phenoxydecanoyl)sulfamoyl]adenosine]
fold decrease in potency for FAAL28 relative to 32 (FAAL28): 10 fold

Nc1ncnc2c1ncn2[C@@H]1O[C@H](CNS(=O)(=O)NC(=O)CCCCCCCCCCOc2ccccc2)[C@@H](O)[C@H]1O [Compound 83, 5′-deoxy-5′-{N-[(11-Phenoxyundecanoyl)sulfamoyl]amino} adenosine]
Ki^app FACL19 (FACL19): no inhibition | fold decrease in potency for FAAL28 relative to 32 (FAAL28): 4 fold

Nc1ncnc2c1ncn2[C@@H]1O[C@H](COS(=O)(=O)NCCCCCCCCCCCOc2ccccc2)[C@@H](O)[C@H]1O [Compound 89, 5′-O-[N-(11-Phenoxyundecyl)sulfamoyl]adenosine]
Ki^app FAAL28 (FAAL28): ablated biochemical inhibition

Nc1ncnc2c1ncn2[C@@H]1O[C@H](CNS(=O)(=O)OCCCCCCCCCCCOc2ccccc2)[C@@H](O)[C@H]1O [Compound 93, 5′-Deoxy-5′-{[(11-phenoxyundecyloxy)sulfonyl]amino}adenosine]
Ki^app FAAL28 (FAAL28): ablated biochemical inhibition
